For 23 compounds, IC50 results are on record in patent publication US8791123B2, “Substituted pyrazolo[1,5-a]pyrimidine compounds as Trk kinase inhibitors” (Array Biopharma, Inc., priority 2009, dated 2014).

Where two headings read alike, the source gives them in different places.

Experiment [1] has as its target TrkA (histidine-tagged recombinant human TrkA, cytoplasmic domain) (Homo sapiens (Human), UniProt P04629). Briefly: TrkA ELISA Assay. In kind it is biochemical. The following applies: Table 1; ELISA, 500 μM ATP; read-out: TrkA Enzyme IC50. In a few lines:
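His-tagged human TrkA cytoplasmic domain phosphorylated poly(Glu,Ala,Tyr 6:3:1) coated at 0.025 mg/mL, with inhibitors present. Phosphotyrosine was detected with HRP-conjugated PY20 antibody (0.2 μg/mL) and TMB, read as absorbance at 450 nm after phosphoric acid stop.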
(An ELISA detects its analyte on a solid surface through an enzyme-linked reagent.)

A further experiment deals with Human Jak2 kinase domain (Homo sapiens (Human), UniProt O60674). As to the kind of experiment: Jak2 Inhibition Assay (Omnia kinase assay). In kind it is biochemical. The following applies: read-out: Jak2 Enzyme IC50.
Where [2] appears, read: Table 1, 500 μM ATP, >1000 nM when >50% inhibition not observed at 1000 nM.

Sequence of TrkA (histidine-tagged recombinant human TrkA, cytoplasmic domain) (P04629 440-796): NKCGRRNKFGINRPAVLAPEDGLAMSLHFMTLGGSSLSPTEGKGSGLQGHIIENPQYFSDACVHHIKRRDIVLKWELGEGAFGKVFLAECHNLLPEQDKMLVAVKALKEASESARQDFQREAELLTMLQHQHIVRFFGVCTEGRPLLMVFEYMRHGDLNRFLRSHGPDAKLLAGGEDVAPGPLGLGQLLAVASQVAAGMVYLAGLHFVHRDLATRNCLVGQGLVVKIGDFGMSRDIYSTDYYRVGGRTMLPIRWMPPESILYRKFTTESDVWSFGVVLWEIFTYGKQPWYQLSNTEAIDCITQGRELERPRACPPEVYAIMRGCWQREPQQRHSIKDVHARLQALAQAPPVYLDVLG
Sequence of Human Jak2 kinase domain (O60674 808-1132): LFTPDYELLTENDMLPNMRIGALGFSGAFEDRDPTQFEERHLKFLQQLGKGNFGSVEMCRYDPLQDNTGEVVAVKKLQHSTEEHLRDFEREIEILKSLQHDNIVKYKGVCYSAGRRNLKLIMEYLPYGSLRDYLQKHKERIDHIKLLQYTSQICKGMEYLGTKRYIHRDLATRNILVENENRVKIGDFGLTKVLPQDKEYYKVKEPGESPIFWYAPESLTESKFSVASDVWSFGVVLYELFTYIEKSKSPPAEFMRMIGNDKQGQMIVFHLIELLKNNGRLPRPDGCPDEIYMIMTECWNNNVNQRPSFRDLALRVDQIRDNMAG

As a reminder, the IC50 is the concentration that inhibits the measured activity by half. On to `COc1ncc(F)cc1[C@H]1CCCN1c1ccn2ncc(C(=O)Nc3ccc(=O)[nH]c3)c2n1` [Example 161, (R)-5-(2-(5-fluoro-2-methoxypyridin-3-yl)pyrrolidin-1-yl)-N-(6-oxo-1,6-dihydropyridin-3-yl)pyrazolo[1,5-a]pyrimidine-3-carboxamide], for which the half-inhibitory concentration (IC50) in experiment [1] is 3 nM; at Human Jak2 kinase domain (setting [2]), over 1000 nM.
On to `COc1ccc(F)cc1[C@H]1CCCN1c1ccn2ncc(C(=O)NC[C@@H](O)CO)c2n1` [Example 56, N—((R)-2,3-dihydroxypropyl)-5-((R)-2-(5-fluoro-2-methoxyphenyl)pyrrolidin-1-yl)pyrazolo[1,5-a]pyrimidine-3-carboxamide], for which the half-inhibitory concentration (IC50) in experiment [1] is 2.4 nM; on Human Jak2 kinase domain it was over 1000 nM.
For the compound `COc1ncc(F)cc1[C@H]1CCCN1c1ccn2ncc(C(N)=O)c2n1` [Example 82, (R)-5-(2-(5-fluoro-2-methoxypyridin-3-yl)pyrrolidin-1-yl)pyrazolo[1,5-a]pyrimidine-3-carboxamide], the half-inhibitory concentration (IC50) in experiment [1] is 2.55 nM; on Human Jak2 kinase domain it was over 1000 nM.
As to `C[C@H](CO)NC(=O)c1cnn2ccc(N3CCC[C@@H]3c3cncc(F)c3)nc12` [Example 115, 5-((R)-2-(5-fluoropyridin-3-yl)pyrrolidin-1-yl)-N-((R)-1-hydroxypropan-2-yl)pyrazolo[1,5-a]pyrimidine-3-carboxamide], the half-inhibitory concentration (IC50) is 15.3 nM in experiment [1] and over 1000 nM at Human Jak2 kinase domain (setting [2]).
In the same order, the values of `Cc1ccc(CNC(=O)c2cnn3ccc(N4CCC[C@@H]4c4cc(F)ccc4F)nc23)o1` [Example 5, (R)-5-(2-(2,5-difluorophenyl)pyrrolidin-1-yl)-N-((5-methylfuran-2-yl)methyl)pyrazolo[1,5-a]pyrimidine-3-carboxamide] are 0.95 nM and over 1000 nM.
In the same order, the values of `O=C(NCC(F)F)c1cnn2ccc(N3CCC[C@@H]3c3cncc(F)c3)nc12` [Example 134, (R)-N-(2,2-difluoroethyl)-5-(2-(5-fluoropyridin-3-yl)pyrrolidin-1-yl)pyrazolo[1,5-a]pyrimidine-3-carboxamide] are 7.4 nM and over 1000 nM.
In the case of `Cc1ncc(F)cc1[C@H]1CCCN1c1ccn2ncc(C(=O)NCCO)c2n1` [Example 188, (R)-5-(2-(5-fluoro-2-methylpyridin-3-yl)pyrrolidin-1-yl)-N-(2-hydroxyethyl)pyrazolo[1,5-a]pyrimidine-3-carboxamide], the IC50 is 83 nM in experiment [1] and over 1000 nM at Human Jak2 kinase domain (setting [2]).
In the same order, the values of `O=C(NCCN1CCOCC1)c1cnn2ccc(N3CCC[C@@H]3c3cc(F)ccc3F)nc12` [Example 4, (R)-5-(2-(2,5-difluorophenyl)pyrrolidin-1-yl)-N-(2-morpholinoethyl)pyrazolo[1,5-a]pyrimidine-3-carboxamide] are 0.95 nM and over 1000 nM.
In the same order, the values of `CC(C)(N)CNC(=O)c1cnn2ccc(N3CCC[C@@H]3c3cc(F)ccc3F)nc12` [Example 58, (R)—N-(2-amino-2-methylpropyl)-5-(2-(2,5-difluorophenyl)pyrrolidin-1-yl)pyrazolo[1,5-a]pyrimidine-3-carboxamide] are 9.4 nM and over 1000 nM.
In the same order, the values of `CC(C)(C)NC(=O)c1cnn2ccc(N3CCC[C@@H]3c3cc(F)ccc3F)nc12` [Example 1, (R)—N-tert-butyl-5-(2-(2,5-difluorophenyl)pyrrolidin-1-yl)pyrazolo[1,5-a]pyrimidine-3-carboxamide] are 0.7 nM and over 1000 nM.
In the case of `CC(C)(C)[C@@H](CO)NC(=O)c1cnn2ccc(N3CCC[C@@H]3c3cc(F)ccc3F)nc12` [Example 180, 5-((R)-2-(2,5-difluorophenyl)pyrrolidin-1-yl)-N-((S)-1-hydroxy-3,3-dimethylbutan-2-yl)pyrazolo[1,5-a]pyrimidine-3-carboxamide], the figures for the IC50 (in experiment [1]; at Human Jak2 kinase domain (setting [2])) were 12.3 nM and over 1000 nM, respectively.
In the same order, the values of `CC(C)[C@H](CO)NC(=O)c1cnn2ccc(N3CCC[C@@H]3c3cncc(F)c3)nc12` [Example 122, 5-((R)-2-(5-fluoropyridin-3-yl)pyrrolidin-1-yl)-N-((R)-1-hydroxy-3-methylbutan-2-yl)pyrazolo[1,5-a]pyrimidine-3-carboxamide] are 33.2 nM and over 1000 nM.
Turning to `O=C(N[C@@H]1CCC[C@H]1O)c1cnn2ccc(N3CCC[C@@H]3c3cncc(F)c3)nc12` [Example 133, 5-((R)-2-(5-fluoropyridin-3-yl)pyrrolidin-1-yl)-N-((1R,2R)-2-hydroxycyclopentyl)pyrazolo[1,5-a]pyrimidine-3-carboxamide], the IC50 is 16 nM in experiment [1] and over 1000 nM at Human Jak2 kinase domain (setting [2]).
In the same order, the values of `COc1ncc(F)cc1[C@H]1CCCN1c1ccn2ncc(C(=O)NC[C@H](O)CO)c2n1` [Example 143, N—((S)-2,3-dihydroxypropyl)-5-((R)-2-(5-fluoro-2-methoxypyridin-3-yl)pyrrolidin-1-yl)pyrazolo[1,5-a]pyrimidine-3-carboxamide] are 8 nM and over 1000 nM.
On to `C[C@H](O)[C@H](CO)NC(=O)c1cnn2ccc(N3CCC[C@@H]3c3cc(F)ccc3F)nc12` [Example 175, 5-((R)-2-(2,5-difluorophenyl)pyrrolidin-1-yl)-N-((2S,3S)-1,3-dihydroxybutan-2-yl)pyrazolo[1,5-a]pyrimidine-3-carboxamide], for which the IC50 in experiment [1] was 12.2 nM; on Human Jak2 kinase domain (setting [2]), over 1000 nM.
On to `O=C(NC1CC1)c1cnn2ccc(N3CCC[C@@H]3c3cc(F)ccc3F)nc12` [Example 13, (R)—N-cyclopropyl-5-(2-(2,5-difluorophenyl)pyrrolidin-1-yl)pyrazolo[1,5-a]pyrimidine-3-carboxamide], for which the IC50 in experiment [1] is 0.5 nM; at Human Jak2 kinase domain (setting [2]) it was over 1000 nM.
In the same order, the values of `C[C@H](O)[C@@H](CO)NC(=O)c1cnn2ccc(N3CCC[C@@H]3c3cc(F)ccc3F)nc12` [Example 176, 5-((R)-2-(2,5-difluorophenyl)pyrrolidin-1-yl)-N-((2R,3S)-1,3-dihydroxybutan-2-yl)pyrazolo[1,5-a]pyrimidine-3-carboxamide] are 27.2 nM and over 1000 nM.
In the same order, the values of `COCCOc1cc(F)cc([C@H]2CCCN2c2ccn3ncc(C(N)=O)c3n2)c1` [Example 78, (R)-5-(2-(3-fluoro-5-(2-methoxyethoxy)phenyl)pyrrolidin-1-yl)pyrazolo[1,5-a]pyrimidine-3-carboxamide] are 34.9 nM and over 1000 nM.
As to `COc1ccc(F)cc1[C@H]1CCCN1c1ccn2ncc(C(=O)NC[C@H](O)CO)c2n1` [Example 55, N—((S)-2,3-dihydroxypropyl)-5-((R)-2-(5-fluoro-2-methoxyphenyl)pyrrolidin-1-yl)pyrazolo[1,5-a]pyrimidine-3-carboxamide], the figures for the IC50 (in experiment [1]; at Human Jak2 kinase domain) were 1 nM and over 1000 nM, respectively.
For the compound `Cc1ncc(F)cc1[C@H]1CCCN1c1ccn2ncc(C(=O)N[C@H]3CN4CCC3CC4)c2n1` [Example 198, 5-((R)-2-(5-fluoro-2-methylpyridin-3-yl)pyrrolidin-1-yl)-N-((R)-quinuclidin-3-yl)pyrazolo[1,5-a]pyrimidine-3-carboxamide], the IC50 in experiment [1] was 243 nM; on Human Jak2 kinase domain (setting [2]), over 1000 nM.
In the same order, the values of `CNC(=O)c1cnn2ccc(N3CCC[C@@H]3c3cc(F)cnc3OC)nc12` [Example 153, (R)-5-(2-(5-fluoro-2-methoxypyridin-3-yl)pyrrolidin-1-yl)-N-methylpyrazolo[1,5-a]pyrimidine-3-carboxamide] are 2.1 nM and over 1000 nM.
In the same order, the values of `CNC(=O)c1cnn2ccc(N3C[C@@H](O)C[C@@H]3c3cccc(F)c3)nc12` [Example 218, 5-((2R,4S)-2-(3-fluorophenyl)-4-hydroxypyrrolidin-1-yl)-N-methylpyrazolo[1,5-a]pyrimidine-3-carboxamide] are 33.9 nM and over 1000 nM.
With `COCCOc1ccc(F)cc1[C@H]1CCCN1c1ccn2ncc(C(N)=O)c2n1` [Example 89, (R)-5-(2-(5-fluoro-2-(2-methoxyethoxy)phenyl)pyrrolidin-1-yl)pyrazolo[1,5-a]pyrimidine-3-carboxamide], the half-maximal inhibitory concentration (IC50) in experiment [1] was 3.6 nM; on Human Jak2 kinase domain (setting [2]), over 1000 nM.
